Measurements from paper PMC10041537, “Molecular origins of mutational spectra produced by the environmental carcinogen N-nitrosodimethylamine and SN1 chemotherapeutic agents” (NAR Cancer, 2023).

Tests used:
mouse genome = assay: Duplex sequencing, high-resolution mutational spectra and pLOGO of liver and lung of NDMA-treated wild-type mice; format: in vivo, gptΔ C57BL/6J mice
Experimental: (§1) Most experiments utilized C57BL/6J gptΔ transgenic mice ([49],[50]), a gift from T. Nohmi. Some experiments used RaDR^R/R;gpt^g/g;Mgmt^−/− mice, which were created by crossing RaDR^R/R;gpt^g/gmice ([37]) with Mgmt^−/− mice ([51]). NDMA was synthesized and characterized as previously described ([52]) (Fig. S1). […] The first dose (3.5 mg/kg in 10 μl) was administered at 8 days of age, and the second dose (7 mg/kg in 20 μl) was administered at 15 days of age. Vehicle treated mice were administered equivalent volumes of saline. Mice were euthanized at ten weeks post-injection by CO2 inhalation. Both male and female mice were used in all experimental groups (n = 5) in all mouse experiments.
To determine the identity of mutations and the sequence contexts in which they occur, we utilized a form of error-corrected sequencing called duplex sequencing (DS). Previously, we described how DS can be used directly on genomic samples derived from the gptΔ mouse to yield high-resolution mutational spectra in an unbiased (unselected) manner ([49]). Unlike the traditional gptΔ assay, DS evaluates the mutations throughout the entire 6382 bp transgenic region (which contains the gpt gene), without the need for a phenotypic selection. In the present work, 6.4 kb gpt-containing plasmids from gptΔ mouse livers and cell culture were isolated using a Miniprep Kit (Qiagen) following instructions of the manufacturer. Approximately 6 μg of plasmid DNA was diluted in 1× TE buffer-low EDTA, pH 8 (Thermo Scientific), transferred to a microTUBE AFA Fiber Pre-Slit Snap-Cap (Covaris) and sonicated using a Covaris E220 Focused-ultrasonicator. The following program was used to obtain 300–350 bp fragments: peak incident power = 140 W, duty factor = 10%, cycles per burst = 200, treatment time = 80 s, temperature = 4–7°C. DS libraries for gptΔ C57BL/6J mice and MEFs were prepared using the NEBNext Ultra II DNA Library Prep (E7103, NEB) or as described in Chawanthayatham et al. ([49]) and sequenced on a NextSeq500 or NovaSeq 6000 Illumina platform by using a 150 bp paired-end protocol (MIT BioMicro Center). DS libraries for the gptΔ mouse lungs and Mgmt^−/− mice were prepared using an input of 1 μg or 500 ng genomic DNA, respectively, using a TwinStrand Biosciences, Inc. Mouse Mutagenesis Kit according to the manufacturer's protocol. This kit uses probes that hybridize to 20 genomic regions, each 2.4 kb long. The genomic coordinates are provided in Supplementary Table S1. These probes were purposely selected to map in intronic and intergenic regions, to avoid selection bias. The libraries were sequenced on an Illumina NovaSeq 6000 DNA sequencer on an S4 flow cell using a 150 bp paired-end protocol (MIT BioMicro Center).
For each sample, the two fastq files generated by the Illumina sequencer were converted into an unaligned bam file, using Picard Tools. The resulting bam file was processed using UnifiedConsensusMaker.py (version 3.0) as available from the Kennedy Lab at University of Washington (https://github.com/Kennedy-Lab-UW/Duplex-Sequencing). Briefly, this program queries the molecular tags on each read and assembles them into families (strands with the same tag). These are subsequently collapsed into single-strand consensus sequences (SSCS). Then, the software identifies the SSCS corresponding to the complementary strand; these are grouped together as a double-strand consensus sequence (DCS). Unpaired SSCSs were flagged and ignored for the rest of the analysis. Sequence information was accepted only when the information from the two complementary DNA strands was in perfect agreement. The DCSs (as fastq files) were subsequently aligned to the target region (6382 nt in the λ-EG10 genome) using Burrows-Wheeler aligner. Unmapped reads were filtered out. Finally, the properly aligned DCS reads were trimmed (bases 1–8 and 120–137) and collapsed into a pileup file using SamTools. […]

gpt reporter gene = format: in vivo, RaDR^R/R;gpt^g/g;Mgmt^−/− mice; settings: liver, NDMA-treated Mgmt−/− vs NDMA-treated WT
Experimental: as §1
The gptΔ assay is the technology traditionally used with the gptΔ mouse to probe for small mutations in the 459 bp gpt transgene, of which approximately 160 copies exist in the mouse diploid genome ([50]). […]
The λ-EG10 phage was packaged in vitro from genomic DNA using a Transpack packaging extract (Agilent Technologies) and then transfected into E. coli YG6020 expressing Cre-recombinase, generating a 6.4 kb plasmid carrying the gpt and chloramphenicol acetyltransferase genes. […] The mutant frequency of each group was calculated (ratio of total 6-TG-resistant colonies to the average of chloramphenicol resistant colonies). The samples were processed and analyzed in a blinded fashion. […]

human = tested on: human; parameters: method as in PMID 21141240; settings: cited from earlier work
[1] = C at -6 relative to G→A mutation, liver, WT mice

SMILES: CN(C)N=O [NDMA, N-nitrosodimethylamine]
- pLOGO Frequency (%) (mouse genome; A at 1, lung, WT mice): 32.2%
- pLOGO Value (log-odds binomial probability) (mouse genome; A at 1, lung, WT mice): 5.89
- pLOGO Frequency (%) (mouse genome; A at 2, lung, WT mice): 32.0%
- pLOGO Value (log-odds binomial probability) (mouse genome; A at 2, lung, WT mice): 4.51
- pLOGO Frequency (%) (mouse genome; A at 3, liver, WT mice): 28.4%
- pLOGO Value (log-odds binomial probability) (mouse genome; A at 3, liver, WT mice): 4.00
- pLOGO Frequency (%) (mouse genome; A at -1, liver, WT mice): 30.9%
- pLOGO Value (log-odds binomial probability) (mouse genome; A at -1, liver, WT mice): 52.74
- pLOGO Frequency (%) (mouse genome; A at -1, lung, WT mice): 45.9%
- pLOGO Value (log-odds binomial probability) (mouse genome; A at -1, lung, WT mice): 37.22
- pLOGO Frequency (%) (mouse genome; A at -2, lung, WT mice): 34.3%
- pLOGO Value (log-odds binomial probability) (mouse genome; A at -2, lung, WT mice): 6.29
- pLOGO Frequency (%) (mouse genome; C at 1, liver, WT mice): 38.4%
- pLOGO Value (log-odds binomial probability) (mouse genome; C at 1, liver, WT mice): 27.34
- pLOGO Frequency (%) (mouse genome; C at 4, liver, WT mice): 26.0%
- pLOGO Value (log-odds binomial probability) (mouse genome; C at 4, liver, WT mice): 6.07
- pLOGO Frequency (%) (mouse genome; C at -3, liver, WT mice): 31.4%
- pLOGO Value (log-odds binomial probability) (mouse genome; C at -3, liver, WT mice): 22.96
- pLOGO Frequency (%) (mouse genome; C at -5, liver, WT mice): 26.7%
- pLOGO Value (log-odds binomial probability) (mouse genome; C at -5, liver, WT mice): 4.79
- pLOGO Frequency (%) (mouse genome; [1]): 28.0%
- pLOGO Value (log-odds binomial probability) (mouse genome; [1]): 3.68
- pLOGO Frequency (%) (mouse genome; G at -1, liver, WT mice): 47.4%
- pLOGO Value (log-odds binomial probability) (mouse genome; G at -1, liver, WT mice): 193.23
- pLOGO Frequency (%) (mouse genome; G at -1, lung, WT mice): 39.2%
- pLOGO Value (log-odds binomial probability) (mouse genome; G at -1, lung, WT mice): 64.57
- pLOGO Frequency (%) (mouse genome; T at 1, liver, WT mice): 23.8%
- pLOGO Value (log-odds binomial probability) (mouse genome; T at 1, liver, WT mice): 4.97
- pLOGO Frequency (%) (mouse genome; T at 1, lung, WT mice): 29.1%
- pLOGO Value (log-odds binomial probability) (mouse genome; T at 1, lung, WT mice): 10.31
- sequence context dependency of GC→AT mutations (mouse genome; WT mice, Pu = purine, N = any base): 5’-PuGN-3’
- AT→GC mutations, proportion of total number of mutations (mouse genome; WT mice, after background subtraction): 4.6%
- dominant mutation type of mutational spectrum (mouse genome; liver and lung of WT mice, 10 weeks post NDMA): GC→AT transition mutations
- enhanced mutant frequency in Mgmt−/− vs wild-type mice, females (gpt reporter gene; females): 3 fold
- enhanced mutant frequency in Mgmt−/− vs wild-type mice, males (gpt reporter gene; males): 4 fold
- IARC classification (human): probable (Group 2A) human carcinogen
